In patent US20120095211A1, “SUBSTITUTED PROLINE INHIBITORS OF HEPATITIS C VIRUS REPLICATION” (InterMune, Inc., priority 2010, published 2012):
Like-named read-outs stand apart in the source and are kept apart here.

Experiments:
[1] = rcm bond
NS3/NS4 complexes = NS3/NS4 complexes (Hepatitis C virus genotype 1a, UniProt P27958); assay: NS3/NS4 inhibition assay (inhibitory concentrations of test compounds); assay type: biochemical; conditions: NS3-NS4 activity; 23° C., pH 7.5, 25 μM NS4A peptide
From the text: (§1) NS3-NS4 inhibition activity can be determined using known assay methods. For example, NS3/NS4 complexes may be formed and inhibitory concentrations of test compounds determined as described in U.S. Patent Application Publication Number 2007/0054842 paragraph numbers 1497-1509, which is incorporated herein by reference in its entirety. Similarly, hepatitis C replicon EC50 may be determined using known assay methods such as described in U.S. Patent Application Publication Number 2007/0054842 paragraph numbers 1510-1515, which is incorporated herein by reference in its entirety. Assays may be conducted at ambient temperature (23° C.) in assay buffer containing 50 mM Tris-HCl, pH 7.5, 15% glycerol, 0.6 mM Lauryldimethylamine Oxide (LDAO), 25 μM NS4A peptide, and 10 mM Dithiothreitol (DTT).

hepatitis C replicon = hepatitis C replicon EC50 assay; assay type: cell-based, hepatitis C virus (HCV); conditions: Hepatitis C virus
From the text: as §1

[2] = hepatitis C replicon, read-out: EC50

Sequence of NS3/NS4 complexes (P27958 1658-1711): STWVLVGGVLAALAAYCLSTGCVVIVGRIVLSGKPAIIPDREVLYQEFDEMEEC
Sequence of NS3/NS4 complexes (P27958 1027-1657): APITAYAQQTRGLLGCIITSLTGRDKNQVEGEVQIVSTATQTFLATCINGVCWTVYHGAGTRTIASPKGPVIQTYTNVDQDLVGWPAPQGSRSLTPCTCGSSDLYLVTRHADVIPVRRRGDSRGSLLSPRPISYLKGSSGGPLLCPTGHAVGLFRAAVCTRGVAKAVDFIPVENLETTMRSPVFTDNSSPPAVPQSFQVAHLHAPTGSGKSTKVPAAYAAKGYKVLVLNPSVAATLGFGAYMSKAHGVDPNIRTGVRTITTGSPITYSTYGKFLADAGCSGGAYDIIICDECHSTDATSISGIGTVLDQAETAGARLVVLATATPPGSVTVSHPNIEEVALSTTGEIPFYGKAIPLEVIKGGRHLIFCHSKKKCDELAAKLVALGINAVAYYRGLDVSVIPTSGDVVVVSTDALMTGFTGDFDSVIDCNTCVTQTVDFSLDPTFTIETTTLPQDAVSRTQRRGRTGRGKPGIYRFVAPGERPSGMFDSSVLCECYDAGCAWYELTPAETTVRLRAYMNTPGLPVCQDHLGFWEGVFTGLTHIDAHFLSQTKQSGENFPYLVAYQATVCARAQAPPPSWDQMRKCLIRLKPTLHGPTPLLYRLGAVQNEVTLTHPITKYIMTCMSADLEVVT

`COc1ccc2c(O[C@H]3CN4C(=O)[C@@H](NC(=O)OC(C)(C)C)CCCCCC=C[C@@H]5C[C@@]5(C(=O)NS(=O)(=O)C5(C)CC5)NC(=O)[C@@H]4[C@@H]3C)cc(-c3nc(C(C)C)cs3)nc2c1C` gave a ring closure, yield of all isomers ([1]; from C=CCCCCC[C@H](NC(=O)OC(C)(C)C)C(=O)N1C[C@H](Oc2cc(-c3nc(C(C)C)cs3)nc3c(C)c(OC)ccc23)[C@@H](C)[C@H]1C(=O)N[C@]1(C(=O)NS(=O)(=O)C2(C)CC2)C[C@H]1C=C, Zhan catalyst, toluene, 5.9 mM, 65.0 °C, 0.5 h) of 68%.
With `C=C[C@@H]1C[C@]1(NC(=O)[C@@H]1[C@H](C)[C@@H](Oc2ncc(OC)c3ccc(Cl)cc23)CN1C(=O)[C@@H](NC(=O)OC(C)(C)C)C(C)(C)C)C(=O)O` [Compound 210] the IC50 (NS3/NS4 complexes) was 10 to 100 nM and the EC50 (hepatitis C replicon; [2]) was greater than 100 nM.
With `CCOC(=O)[C@@]12C[C@H]1C=CCCCCC[C@H](NC(=O)OC(C)(C)C)C(=O)N1C[C@H](Oc3nc4c(-c5nc(C6CCCCC6)cs5)cccc4n3C(C)C)[C@@H](C)[C@H]1C(=O)N2` the ring closure, yield of all isomers ([1]; from C=CCCCCC[C@H](NC(=O)OC(C)(C)C)C(=O)N1C[C@H](Oc2nc3c(-c4nc(C5CCCCC5)cs4)cccc3n2C(C)C)[C@@H](C)[C@H]1C(=O)N[C@]1(C(=O)OCC)C[C@H]1C=C, Hoveyda-Grubbs catalyst, 1,2-dichloroethane, 0.96 mM) was 83%.
`C=C[C@@H]1C[C@]1(NC(=O)[C@@H]1[C@@H](C)[C@@H](Oc2cc(-c3nc(C(C)C)cs3)nc3c(C)c(OC)ccc23)CN1C(=O)[C@@H](NC(=O)OC(C)(C)C)C(C)(C)C)C(=O)NS(=O)(=O)C1(C)CC1` [Compound 208] showed an IC50 (NS3/NS4 complexes) of 10 to 100 nM and an EC50 (hepatitis C replicon) greater than 100 nM.
`COc1ccc2c(O[C@H]3CN4C(=O)[C@@H](NC(=O)OC(C)(C)C)CCCCCC=C[C@@H]5C[C@@]5(C(=O)NS(=O)(=O)C5(C)CC5)NC(=O)[C@@H]4C3(C)C)cc(-c3nc(C(C)C)cs3)nc2c1C` showed a ring closure, yield of all isomers ([1]; from C=CCCCCC[C@H](NC(=O)OC(C)(C)C)C(=O)N1C[C@H](Oc2cc(-c3nc(C(C)C)cs3)nc3c(C)c(OC)ccc23)C(C)(C)[C@H]1C(=O)N[C@]1(C(=O)NS(=O)(=O)C2(C)CC2)C[C@H]1C=C, Zhan catalyst, toluene, 5.9 mM, 65.0 °C, 1.33 h) of 56%.
Molecule `C=C[C@@H]1C[C@]1(NC(=O)[C@@H]1[C@H](C)[C@@H](Oc2cc(-c3nc(C(C)C)cs3)nc3c(C)c(OC)ccc23)CN1C(=O)[C@@H](N)C(C)(C)C)C(=O)NS(=O)(=O)C1CC1` [Compound 207] has an IC50 (NS3/NS4 complexes) of less than 10 nM and an EC50 (hepatitis C replicon; [2]) greater than 100 nM.
With `COc1ccc2c(O[C@H]3CN4C(=O)[C@@H](NC(=O)OC(C)(C)C)CCCCC/C=C\[C@@H]5C[C@@]5(C(=O)NS(=O)(=O)C5(C)CC5)NC(=O)[C@@H]4C3(C)C)cc(-c3nc(C(C)C)cs3)nc2c1C` [Compound 101] the IC50 (NS3/NS4 complexes) was 10 to 100 nM and the EC50 (hepatitis C replicon; [2]) was greater than 100 nM.
Molecule `C=C[C@@H]1C[C@]1(NC(=O)[C@@H]1[C@H](C)[C@@H](Oc2cc(-c3nc(C(C)C)cs3)nc3c(C)c(OC)ccc23)CN1C(=O)[C@@H](Nc1cccc(C(F)(F)F)c1)C(C)(C)C)C(=O)NS(=O)(=O)C1(C)CC1` [Compound 209] has an IC50 (NS3/NS4 complexes) of less than 10 nM and an EC50 (hepatitis C replicon; [2]) of 10 to 100 nM.
`CC(C)n1c(O[C@H]2CN3C(=O)[C@@H](NC(=O)OC(C)(C)C)CCCCC/C=C\[C@@H]4C[C@@]4(C(=O)NS(=O)(=O)C4CC4)NC(=O)[C@@H]3[C@@H]2C)nc2c(-c3nc(C4CCCCC4)cs3)cccc21` [Compound 109] showed an IC50 (NS3/NS4 complexes) of less than 10 nM and an EC50 (hepatitis C replicon; [2]) of 10 to 100 nM.
In the case of `C=C[C@@H]1C[C@]1(NC(=O)[C@@H]1[C@@H](C)[C@@H](Oc2cc(-c3nc(C(C)C)cs3)nc3c(C)c(OC)ccc23)CN1C(=O)[C@@H](N)C(C)(C)C)C(=O)NS(=O)(=O)C1(C)CC1` [Compound 212], the IC50 (NS3/NS4 complexes) is reported as greater than 100 nM.
With `C=C[C@@H]1C[C@]1(NC(=O)[C@@H]1[C@H](C)[C@@H](Oc2cc(-c3nc(C(C)C)cs3)nc3c(C)c(OC)ccc23)CN1C(=O)[C@@H](NC(=O)OC(C)(C)C)C(C)(C)C)C(=O)NS(=O)(=O)C1CC1` [Compound 205] the IC50 (NS3/NS4 complexes) was less than 10 nM and the EC50 (hepatitis C replicon; [2]) was less than 10 nM.
In the case of `CC(C)n1c(O[C@H]2CN3C(=O)[C@@H](NC(=O)OC(C)(C)C)CCCCC/C=C\[C@@H]4C[C@@]4(C(=O)NS(=O)(=O)C4(C)CC4)NC(=O)[C@@H]3[C@@H]2C)nc2c(-c3nc(C4CCCCC4)cs3)cccc21` [Compound 107], the IC50 (NS3/NS4 complexes) is reported as less than 10 nM and the EC50 (hepatitis C replicon; [2]) is reported as 10 to 100 nM.
With `C=C[C@@H]1C[C@]1(NC(=O)[C@@H]1[C@H](C)[C@@H](Oc2ncc(OC)c3ccc(Cl)cc23)CN1C(=O)[C@@H](NC(=O)OC(C)(C)C)C(C)(C)C)C(=O)NS(=O)(=O)C1(C)CC1` [Compound 211] the IC50 (NS3/NS4 complexes) was less than 10 nM and the EC50 (hepatitis C replicon; [2]) was less than 10 nM.
Work on `COc1cnc(O[C@H]2CN3C(=O)[C@@H](NC(=O)OC(C)(C)C)CCCCC/C=C\[C@@H]4C[C@@]4(C(=O)NS(=O)(=O)C4(C)CC4)NC(=O)[C@@H]3[C@@H]2C)c2cc(Cl)ccc12` [Compound 111] yielded an IC50 (NS3/NS4 complexes) of less than 10 nM and an EC50 (hepatitis C replicon; [2]) of less than 10 nM.
Molecule `COc1ccc2c(O[C@H]3CN4C(=O)[C@@H](NC(=O)OC(C)(C)C)CCCCC/C=C\[C@@H]5C[C@@]5(C(=O)NS(=O)(=O)C5(C)CC5)NC(=O)[C@@H]4[C@H]3C)cc(-c3nc(C(C)C)cs3)nc2c1C` [Compound 106] has an IC50 (NS3/NS4 complexes) of 10 to 100 nM and an EC50 (hepatitis C replicon; [2]) greater than 100 nM.
For `C=C[C@@H]1C[C@]1(NC(=O)[C@@H]1[C@H](C)[C@@H](Oc2cc(-c3nc(C(C)C)cs3)nc3c(C)c(OC)ccc23)CN1C(=O)C(N)C(C)(C)C)C(=O)NS(=O)(=O)C1(C)CC1` (some centres unmarked) [Compound 203], the IC50 (NS3/NS4 complexes) was less than 10 nM and the EC50 (hepatitis C replicon; [2]) was 10 to 100 nM.
In the case of `CCOC(=O)[C@@]12C[C@H]1C=CCCCCC[C@H](NC(=O)OC(C)(C)C)C(=O)N1C[C@H](Oc3cc(-c4nc(C(C)C)cs4)nc4c(C)c(OC)ccc34)[C@@H](C)[C@H]1C(=O)N2`, the ring closure, yield of all isomers ([1]; from C=CCCCCC[C@H](NC(=O)OC(C)(C)C)C(=O)N1C[C@H](Oc2cc(-c3nc(C(C)C)cs3)nc3c(C)c(OC)ccc23)[C@@H](C)[C@H]1C(=O)N[C@]1(C(=O)OCC)C[C@H]1C=C, Zhan catalyst, toluene, 11.67 mM, 70.0 °C, 2.0 h) is reported as 75%.
`CCOC(=O)[C@@]12C[C@H]1C=CCCCCC[C@H](NC(=O)OC(C)(C)C)C(=O)N1C[C@H](Oc3ncc(OC)c4ccc(Cl)cc34)[C@@H](C)[C@H]1C(=O)N2` showed a ring closure, yield of all isomers ([1]; from C=CCCCCC[C@H](NC(=O)OC(C)(C)C)C(=O)N1C[C@H](Oc2ncc(OC)c3ccc(Cl)cc23)[C@@H](C)[C@H]1C(=O)N[C@]1(C(=O)OCC)C[C@H]1C=C, Hoveyda-Grubbs catalyst, 1,2-dichloroethane, 0.8 mM, 12.0 h) of 92%.
In the case of `COc1cnc(O[C@H]2CN3C(=O)[C@@H](NC(=O)OC(C)(C)C)CCCCC/C=C\[C@@H]4C[C@@]4(C(=O)O)NC(=O)[C@@H]3[C@@H]2C)c2cc(Cl)ccc12` [Compound 110], the IC50 (NS3/NS4 complexes) is reported as less than 10 nM and the EC50 (hepatitis C replicon; [2]) is reported as greater than 100 nM.
Work on `COc1ccc2c(O[C@H]3CN4C(=O)[C@@H](N)CCCCC/C=C\[C@@H]5C[C@@]5(C(=O)NS(=O)(=O)C5(C)CC5)NC(=O)[C@@H]4[C@@H]3C)cc(-c3nc(C(C)C)cs3)nc2c1C` [Compound 104] yielded an IC50 (NS3/NS4 complexes) of less than 10 nM and an EC50 (hepatitis C replicon; [2]) of 10 to 100 nM.
Work on `COc1ccc2c(O[C@H]3CN4C(=O)[C@@H](NC(=O)OC(C)(C)C)CCCCC/C=C\[C@@H]5C[C@@]5(C(=O)NS(=O)(=O)C5CC5)NC(=O)[C@@H]4[C@@H]3C)cc(-c3nc(C(C)C)cs3)nc2c1C` [Compound 103] yielded an IC50 (NS3/NS4 complexes) of less than 10 nM and an EC50 (hepatitis C replicon; [2]) of less than 10 nM.
`C=C[C@@H]1C[C@]1(NC(=O)[C@@H]1[C@H](C)[C@@H](Oc2cc(-c3nc(C(C)C)cs3)nc3c(C)c(OC)ccc23)CN1C(=O)[C@@H](NC(=O)OC(C)(C)C)C(C)(C)C)C(=O)NS(=O)(=O)C1(C)CC1` [Compound 204] showed an IC50 (NS3/NS4 complexes) of less than 10 nM and an EC50 (hepatitis C replicon; [2]) of less than 10 nM.
In the case of `COc1ccc2c(O[C@H]3CN4C(=O)[C@@H](NC(=O)OC(C)(C)C)CCCCCC=C[C@@H]5C[C@@]5(C(=O)NS(=O)(=O)C5(C)CC5)NC(=O)[C@@H]4[C@H]3C)cc(-c3nc(C(C)C)cs3)nc2c1C`, the ring closure, yield of all isomers ([1]; from C=CCCCCC[C@H](NC(=O)OC(C)(C)C)C(=O)N1C[C@H](Oc2cc(-c3nc(C(C)C)cs3)nc3c(C)c(OC)ccc23)[C@H](C)[C@H]1C(=O)N[C@]1(C(=O)NS(=O)(=O)C2(C)CC2)C[C@H]1C=C, Zhan catalyst, 70.0 °C, 0.5 h) is reported as 59%.
Molecule `CC(C)n1c(O[C@H]2CN3C(=O)[C@@H](NC(=O)OC(C)(C)C)CCCCCC=C[C@@H]4C[C@@]4(C(=O)NS(=O)(=O)C4(C)CC4)NC(=O)[C@@H]3[C@@H]2C)nc2c(-c3nc(C4CCCCC4)cs3)cccc21` has a ring closure, yield of all isomers ([1]; from C=CCCCCC[C@H](NC(=O)OC(C)(C)C)C(=O)N1C[C@H](Oc2nc3c(-c4nc(C5CCCCC5)cs4)cccc3n2C(C)C)[C@@H](C)[C@H]1C(=O)N[C@]1(C(=O)NS(=O)(=O)C2(C)CC2)C[C@H]1C=C, Zhan catalyst, toluene, 5.16 mM, 65.0 °C, 1.0 h) of 53.9%.
For `COc1ccc2c(O[C@H]3CN4C(=O)[C@@H](NC(=O)OC(C)(C)C)CCCCC/C=C\[C@@H]5C[C@@]5(C(=O)NS(=O)(=O)C5(C)CC5)NC(=O)[C@@H]4[C@@H]3C)cc(-c3nc(C(C)C)cs3)nc2c1C` [Compound 102], the IC50 (NS3/NS4 complexes) was less than 10 nM and the EC50 (hepatitis C replicon; [2]) was less than 10 nM.
`C=C[C@@H]1C[C@]1(NC(=O)[C@H]1N(C(=O)C(NC(=O)OC(C)(C)C)C(C)(C)C)C[C@H](Oc2cc(-c3nc(C(C)C)cs3)nc3c(C)c(OC)ccc23)C1(C)C)C(=O)NS(=O)(=O)C1(C)CC1` (some centres unmarked) [Compound 202] showed an IC50 (NS3/NS4 complexes) greater than 100 nM and an EC50 (hepatitis C replicon; [2]) greater than 100 nM.
